The target of experiment [1] is T1, DXP synthase (Escherichia coli, UniProt P77488).
T1 sequence (P77488 2-620): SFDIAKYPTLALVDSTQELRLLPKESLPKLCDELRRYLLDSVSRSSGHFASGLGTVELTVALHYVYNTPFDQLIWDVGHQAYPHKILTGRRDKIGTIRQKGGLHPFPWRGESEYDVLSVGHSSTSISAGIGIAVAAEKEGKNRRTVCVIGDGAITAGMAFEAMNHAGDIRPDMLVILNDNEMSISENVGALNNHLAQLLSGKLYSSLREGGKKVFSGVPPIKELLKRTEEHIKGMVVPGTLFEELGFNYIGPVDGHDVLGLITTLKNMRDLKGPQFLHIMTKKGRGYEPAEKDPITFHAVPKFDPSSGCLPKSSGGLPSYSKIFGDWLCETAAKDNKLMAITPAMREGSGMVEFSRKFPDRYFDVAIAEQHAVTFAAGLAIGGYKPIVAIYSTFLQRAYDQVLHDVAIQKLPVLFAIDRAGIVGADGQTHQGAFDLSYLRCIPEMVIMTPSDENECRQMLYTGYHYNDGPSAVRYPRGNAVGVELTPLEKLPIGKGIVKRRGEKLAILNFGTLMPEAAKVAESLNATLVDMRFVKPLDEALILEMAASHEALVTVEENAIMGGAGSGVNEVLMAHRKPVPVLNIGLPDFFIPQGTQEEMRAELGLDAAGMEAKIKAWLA
Nature of the experiment: steady-state DXP formation, Michaelis-Menten plot. It is filed as biochemical. As to conditions: D-GAP supplied as D,L-GAP; with pyruvate.

In experiment [2] the target is T1, DXP synthase. Description: near-UV CD of enzyme-bound ThDP. It is filed as binding. The settings on record: AP tautomer dominant at pH 7.98.
Experiment [3] deals with T1, DXP synthase. Description: CD titration at […] nm. In kind it is binding.

For `O=C[C@H](O)COP(=O)(O)O` [D-GAP], the Km entry on DXP synthase [1] was “Michaelis-Menten plot to determine the Km for D-GAP”.

On to `Cc1ncc(C[n+]2csc(CCOP(=O)(O)OP(=O)(O)O)c2C)c(N)n1` [ThDP], for which, at DXP synthase [2], the “near-UV CD of enzyme-bound ThDP (negative band at 320 nm)” value is reported as “suggesting the preponderance of the AP tautomer of ThDP bound to the enzyme”.

At DXP synthase [3], `CC(=O)C(=O)O` [pyruvate] registered a Kd of roughly 90 µM.

For the origin of these results see publication PMC3494461 (Journal of the American Chemical Society, 2012).
